Here are results for 4 molecules from patent publication US5204336A, “Naphthyl-,tetrahydronaphthyl-, and indanyl-substituted G-em-diphosphonates and process of use to treat hyperlipidemia” (Symphar S.A., priority 1992, dated 1993).

Each structure is given as a SMILES string.

The subject of the assay is peroxide produced in rat liver homogenates. Briefly: Antioxidant activity: FeSO4-generated peroxides in rat liver homogenate, thiobarbituric acid reaction. Particulars: rat liver homogenate incubated with FeSO4, thiobarbituric acid reaction; read-out: IC50, antioxidant activity (peroxide production). Format: biochemical. How it is done:
Rat liver homogenates were prepared according to Fraga, C. G. et al. Free Radicals Biol. Med., 4, 155, 1988 and Kornburst D. J. et al. Lipids 15, 315, 1980.
Peroxides were generated by incubation of the homogenate with the FeSO4 as described by Quitanilha A. T. et al. Ann. N.Y., Acad. Sci. 393, 32, 1982.
Compounds to be tested for their antioxidant activity were dissolved in DMSO and added to the incubation mixture. The amount of peroxide produced was determined by the thiobarbituric acid reaction using malonaldehyde as standard.
Consider `CCOP(=O)(OCC)C(=Cc1cc(C(C)(C)C)c(O)c2ccccc12)P(=O)(OCC)OCC` [Example 1], for which the IC50 turned out to be 1.5 µM.

On to `CC(C)OP(=O)(OC(C)C)C(=Cc1cc(C(C)(C)C)c(O)c2ccccc12)P(=O)(OC(C)C)OC(C)C` [Example 2], for which the 50% inhibitory concentration (IC50) is 0.7 µM.

For the molecule `CCOP(=O)(OCC)C(=Cc1cc(C(C)(C)C)c(O)c2c1CCCC2)P(=O)(OCC)OCC` [Example 6, Tetraethyl 2-(3-tert-butyl-4-hydroxy-5,6,7,8-tetrahydronaphthyl)-ethenylidene-1,1-diphosphonate], the concentration for half-maximal inhibition (IC50) came to 7 µM.

For the molecule `CC(C)OP(=O)(OC(C)C)C(=Cc1cc(C(C)(C)C)c(O)c2c1CCCC2)P(=O)(OC(C)C)OC(C)C` [Example 8, Tetraispropyl 2-[3-tert-butyl-4-hydroxy-5,6,7,8-tetrahydronaphthyl]-ethenylidene-1,1-diphosphonate], the IC50 worked out at 2.5 µM.

Usually IC50 stands for the point on the concentration scale where inhibition reaches its midpoint.
